Patent EP2951180B1, “2,6,7,8 SUBSTITUTED PURINES AS HDM2 INHIBITORS” (Merck Sharp & Dohme Corp., priority 2013, dated 2014)

Target: T1, HDM2 (Homo sapiens, UniProt Q00987)
T1 construct: Thioredoxin (N); made in house; host or cells: E. coli strain BL21(DE3)Rosetta
Test: HDM2 FRET assay (inhibition of binding of FITC labeled p53-pocket peptide to HDM2)
Conditions: Table 21; read-out: FRET IC50
In short: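 Displacement of FITC-p53 peptide (3 nM) from His-tagged HDM2 (0.5 nM) is measured by Tb-to-fluorescein FRET in PBS, 0.01% BSA, 0.01% Tween-20. IC50 values derive from 10-point curves.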

T1 sequence (Q00987 17-125): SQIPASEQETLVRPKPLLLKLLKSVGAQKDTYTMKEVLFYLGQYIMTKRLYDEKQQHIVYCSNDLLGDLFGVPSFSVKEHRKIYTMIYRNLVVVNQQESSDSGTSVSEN

Compound | IC50
Cc1nc2nc(C(=O)O)nc(N[C@H](C)C3CCC3)c2n1C[C@H]1CC[C@H](C)CC1 [Example 21.9, 6-{[(1R)-1-cyclobutylethyl]amino}-8-methyl-7-[(trans-4-methylcyclohexyl)methyl]-7H-purine-2-carboxylic acid] | 101 nM
C[C@@H](Nc1nc(C(=O)O)nc2nc(C3CCCC(=O)C3c3ccccc3)n(Cc3ccc(C(F)(F)F)cc3)c12)C1CCC1 (stereo partly drawn) [Example 21.11, 6-{[(1R)-1-cyclobutylethyl]amino}-8-(3-oxo-2-phenylcyclohexyl)-7-[4-(trifluoromethyl)benzyl]-7H-purine-2-carboxylic acid] | 8.72 nM
C[C@@H](Nc1nc(C(=O)O)nc2nc(C3CCCCC3c3ccccc3)n(Cc3ccc(C(F)(F)F)cc3)c12)C1CCC1 (stereo partly drawn) [Example 21.12, 6-{[(1R)-1-cyclobutylethyl]amino}-8-(2-phenylcyclohexyl)-7-[4-(trifluoromethyl)benzyl]-7H-purine-2-carboxylic acid] | 4.57 nM
C=C(c1ccccc1)c1nc2nc(-c3noc(=O)[nH]3)nc(N[C@H](C)C3CCC3)c2n1C[C@H]1CC[C@H](C)CC1 [Example 21.13, 3-[6-{[(1R)-1-cyclobutylethyl]amino}-7-[(trans-4-methylcyclohexyl)methyl]-8-(1-phenylethenyl)-7H-purin-2-yl]-1,2,4-oxadiazol-5(4H)-one] | 1.9 nM
C[C@@H](Nc1nc(-c2noc(=O)[nH]2)nc2nc(C3=C(c4ccccc4)CCCC3)n(C[C@H]3CC[C@H](C)CC3)c12)C1CCC1 [Example 21.16, 3-[6-{[(1R)-1-cyclobutylethyl]amino}-7-[(trans-4-methylcyclohexyl)methyl]-8-(2-phenylcyclohex-1-en-1-yl)-7H-purin-2-yl]-1,2,4-oxadiazol-5(4H)-one] | 12.2 nM
C[C@@H](Nc1nc(C(=O)O)nc2nc(C3CCCCC3c3ccccc3)n(C[C@H]3CC[C@H](C)CC3)c12)C1CCC1 (stereo partly drawn) [Example 21.17, 6-{[(1R)-1-cyclobutylethyl]amino}-7-[(trans-4-methylcyclohexyl)methyl]-8-(2-phenylcyclohexyl)-7H-purine-2-carboxylic acid] | 4.3 nM
C[C@@H](Nc1nc(C(=O)O)nc2nc(C3=C(c4ccccc4)CCCC3)n(C[C@H]3CC[C@H](C)CC3)c12)C1CCC1 [Example 21.18, 6-{[(1R)-1-cyclobutylethyl]amino}-7-[(trans-4-methylcyclohexyl)methyl]-8-(2-phenylcyclohex-1-en-1-yl)-7H-purine-2-carboxylic acid] | 6.5 nM
C=C(c1nc2nc(-c3noc(=O)[nH]3)nc(N[C@H](C)C3CCC3)c2n1C[C@H]1CC[C@H](C)CC1)C1CCCCC1 [Example 21.19, 3-(6-{[(1R)-1-cyclobutylethyl]amino}-8-(1-cyclohexylethenyl)-7-[(trans-4-methylcyclohexyl)methyl]-7H-purin-2-yl)-1,2,4-oxadiazol-5(4H)-one] | 0.931 nM
C[C@@H](Nc1nc(-c2noc(=O)[nH]2)nc2nc(/C=C/c3ccccc3)n(C[C@H]3CC[C@H](C)CC3)c12)C1CCC1 [Example 21.20, 3-(6-{[(1R)-1-cyclobutylethyl]amino}-7-[(trans-4-methylcyclohexyl)methyl]-8-[(E)-2-phenylethenyl]-7H-purin-2-yl)-1,2,4-oxadiazol-5(4H)-one] | 1.89 nM
CC(c1nc2nc(-c3noc(=O)[nH]3)nc(N[C@H](C)C3CCC3)c2n1C[C@H]1CC[C@H](C)CC1)C1CCOCC1 (stereo partly drawn) [Example 21.21, 3-(6-{[(1R)-1-cyclobutylethyl]amino}-7-[(trans-4-methylcyclohexyl)methyl]-8-[1-(tetrahydro-2H-pyran-4-yl)ethyl]-7H-purin-2-yl)-1,2,4-oxadiazol-5(4H)-one] | 7.17 nM
C[C@@H](Nc1nc(-c2noc(=O)[nH]2)nc2nc(CCc3ccccc3)n(C[C@H]3CC[C@H](C)CC3)c12)C1CCC1 [Example 21.24, 3-[6-{[(1R)-1-cyclobutylethyl]amino}-7-[(trans-4-methylcyclohexyl)methyl]-8-(2-phenylethyl)-7H-purin-2-yl]-1,2,4-oxadiazol-5(4H)-one] | 8.02 nM
C[C@@H](Nc1nc(-c2noc(=O)[nH]2)nc2nc(C3CC3)n(C[C@H]3CC[C@H](C)CC3)c12)C1CCC1 [Example 21.27, 3-(6-{[(1R)-1-cyclobutylethyl]amino}-8-cyclopropyl-7-[(trans-4-methylcyclohexyl)methyl]-7H-purin-2-yl)-1,2,4-oxadiazol-5(4H)-one] | 18 nM
C=C(c1ccc(F)cc1)c1nc2nc(-c3noc(=O)[nH]3)nc(N[C@H](C)C3CCC3)c2n1C[C@H]1CC[C@H](C)CC1 [Example 21.30, 3-(6-{[(1R)-1-cyclobutylethyl]amino}-8-[1-(4-fluorophenyl)ethenyl]-7-[(trans-4-methylcyclohexyl)methyl]-7H-purin-2-yl)-1,2,4-oxadiazol-5(4H)-one] | 1.84 nM
CC(c1ccc(F)cc1)c1nc2nc(-c3noc(=O)[nH]3)nc(N[C@H](C)C3CCC3)c2n1C[C@H]1CC[C@H](C)CC1 (stereo partly drawn) [Example 21.31, 3-(6-{[(1R)-1-cyclobutylethyl]amino}-8-[1-(4-fluorophenyl)ethyl]-7-[(trans-4-methylcyclohexyl)methyl]-7H-purin-2-yl)-1,2,4-oxadiazol-5(4H)-one] | 10.5 nM
C[C@@H](Nc1nc(-c2noc(=O)[nH]2)nc2nc(C3=CCCC3)n(C[C@H]3CC[C@H](C)CC3)c12)C1CCC1 [Example 21.32, 3-(6-{[(1R)-1-cyclobutylethyl]amino}-8-cyclopent-1-en-1-yl-7-[(trans-4-methylcyclohexyl)methyl]-7H-purin-2-yl)-1,2,4-oxadiazol-5(4H)-one] | 4.87 nM
C[C@@H](Nc1nc(-c2noc(=O)[nH]2)nc2nc(C3CCCC3)n(C[C@H]3CC[C@H](C)CC3)c12)C1CCC1 [Example 21.34, 3-(6-{[(1R)-1-cyclobutylethyl]amino}-8-cyclopentyl-7-[(trans-4-methylcyclohexyl)methyl]-7H-purin-2-yl)-1,2,4-oxadiazol-5(4H)-one] | 7.76 nM
C[C@@H](Nc1nc(-c2noc(=O)[nH]2)nc2nc(C3=CCCCC3)n(C[C@H]3CC[C@H](C)CC3)c12)C1CCC1 [Example 21.37, 3-(6-{[(1R)-1-cyclobutylethyl]amino}-8-cyclohex-1-en-1-yl-7-[(trans-4-methylcyclohexyl)methyl]-7H-purin-2-yl)-1,2,4-oxadiazol-5(4H)-one] | 3.79 nM
C[C@@H](Nc1nc(C(=O)O)nc2nc(C3CCCCC3)n(C[C@H]3CC[C@H](C)CC3)c12)C1CCC1 [Example 21.38, 6-{[(1R)-1-cyclobutylethyl]amino}-8-cyclohexyl-7-[(trans-4-methylcyclohexyl)methyl]-7H-purine-2-carboxylic acid] | 2.68 nM
C[C@@H](Nc1nc(-c2noc(=O)[nH]2)nc2nc(C3CCCCC3)n(C[C@H]3CC[C@H](C)CC3)c12)C1CCC1 [Example 21.39, 3-(6-{[(1R)-1-cyclobutylethyl]amino}-8-cyclohexyl-7-[(trans-4-methylcyclohexyl)methyl]-7H-purin-2-yl)-1,2,4-oxadiazol-5(4H)-one] | 7.87 nM
C[C@@H](Nc1nc(-c2n[nH]c(=O)o2)nc2nc(C3CCCCC3)n(C[C@H]3CC[C@H](C)CC3)c12)C1CCC1 [Example 21.40, 5-(6-{[(1R)-1-cyclobutylethyl]amino}-8-cyclohexyl-7-[(trans-4-methylcyclohexyl)methyl]-7H-purin-2-yl)-1,3,4-oxadiazol-2(3H)-one] | 4.29 nM

Same assay, conditions: Table 22; read-out: FRET IC50

Compound | IC50
C[C@@H](Nc1nc(-c2noc(=O)[nH]2)nc2nc(C(=O)C(C)(C)C)n(C[C@H]3CC[C@H](C)CC3)c12)C1CCC1 [Example 22.1, 3-(6-{[(1R)-1-cyclobutylethyl]amino}-8-(2,2-dimethylpropanoyl)-7-[(trans-4-methylcyclohexyl)methyl]-7H-purin-2-yl)-1,2,4-oxadiazol-5(4H)-one] | 4.65 nM
C[C@@H](Nc1nc(-c2noc(=O)[nH]2)nc2nc(C(C)(O)C(C)(C)C)n(C[C@H]3CC[C@H](C)CC3)c12)C1CCC1 (stereo partly drawn) [Example 22.2, 3-(6-{[(1R)-1-cyclobutylethyl]amino}-8-(1-hydroxy-1,2,2-trimethylpropyl)-7-[(trans-4-methylcyclohexyl)methyl]-7H-purin-2-yl)-1,2,4-oxadiazol-5(4H)-one] | 10.6 nM
C[C@@H](Nc1nc(-c2noc(=O)[nH]2)nc2nc(C3(c4ccccc4F)CC3)n(C[C@H]3CC[C@H](C)CC3)c12)C1CCC1 [Example 22.5, 3-(6-{[(1R)-1-cyclobutylethyl]amino}-8-[1-(2-fluorophenyl)cyclopropyl]-7-[(trans-4-methylcyclohexyl)methyl]-7H-purin-2-yl)-1,2,4-oxadiazol-5(4H)-one] | 3.57 nM
C[C@@H](Nc1nc(-c2noc(=O)[nH]2)nc2nc(C3(c4ccccn4)CC3)n(C[C@H]3CC[C@H](C)CC3)c12)C1CCC1 [Example 22.10, 3-[6-{[(1R)-1-cyclobutylethyl]amino}-7-[(trans-4-methylcyclohexyl)methyl]-8-(1-pyridin-2-ylcyclopropyl)-7H-purin-2-yl]-1,2,4-oxadiazol-5(4H)-one] | 6.29 nM
C=C(c1nc2nc(-c3noc(=O)[nH]3)nc(N[C@H](C)C3CCC3)c2n1C[C@H]1CC[C@H](C)CC1)C(C)(C)C [Example 22.11, 3-(6-{[(1R)-1-cyclobutylethyl]amino}-8-(2,2-dimethyl-1-methylidenepropyl)-7-[(trans-4-methylcyclohexyl)methyl]-7H-purin-2-yl)-1,2,4-oxadiazol-5(4H)-one] | 5.73 nM
C[C@@H](Nc1nc(-c2noc(=O)[nH]2)nc2nc(CC(C)(C)O)n(C[C@H]3CC[C@H](C)CC3)c12)C1CCC1 [Example 22.16, 3-(6-{[(1R)-1-cyclobutylethyl]amino}-8-(2-hydroxy-2-methylpropyl)-7-[(trans-4-methylcyclohexyl)methyl]-7H-purin-2-yl)-1,2,4-oxadiazol-5(4H)-one] | 55.6 nM
